What all share (type): cell-based
One assay has as its target CDK12 (Homo sapiens, UniProt Q9NYV4). As to the kind of experiment: Cellular CDK12 inhibitory activity assay (Ser2 phosphorylation of RNA polymerase II subunit B1 CTD in MDA-MB-231 cells). Set-up: using MDA-MB-231 breast cancer cells; endogenous in cells; host or cells: MDA-MB-231. The following applies: MDA-MB-231 cells, 6 hours treatment; read-out: pRpbl CTD S2 IC50. The method, boiled down: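 MDA-MB-231 cells in L-15 with 10 % FBS were treated with compound at 9 concentrations for 6 h at 37 °C, 0 % CO2. In-Cell Western read phospho-Ser2 and total RNA polymerase II CTD on a Li-COR Odyssey; IC50 from 4-parameter dose-response fit.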

In another assay the test system is Cyclin K. Kind of assay: Analysis of Cyclin K degradation ability in MKN45 gastric cancer cells (western blot). The following applies: 8 hours or 24 hours, compared to the negative control group (DMSO), FIGs. 4 and 5. On the procedure:
In order to confirm the Cyclin K degradation ability of the Example compounds, HCC70 breast cancer cells and MKN45 gastric cancer cells were cultured in RPMI-1640 medium supplemented with 10 % FBS, and then the cells were collected to prepare cell suspensions. The HCC70 breast cancer cell suspension was dispensed at a cell number of 2.0 X 10^6 per 6-well and cultured in a 5 % CO2 cell incubator at 37 °C for 24 hours, and the MKN45 gastric cancer cell suspension was dispensed at a cell number of 5.0 X 10^6 per 6-well and cultured in a 5 % CO2 cell incubator at 37 °C for 24 hours. The next day, each Example compound dissolved and diluted in DMSO across 4 to 5 concentration ranges and a negative control group (DMSO-treated group) were added to the 6-wells, and the HCC70 breast cancer cells were treated for 8 hours while the MKN45 gastric cancer cells were treated with the compounds for 8 hours or 24 hours. After completion of the compound treatment, the medium was removed, each cell was washed with PBS, and then 100 µL of RIPA buffer for cell lysis was added to each 6-well to collect cell lysates. The protein concentration of the cell lysates was quantified by the […], and loading buffer was added to adjust the protein concentration to 30 µg, followed by reaction at 85 °C for 10 minutes, centrifugation, and standing at room temperature. […]

The test system of a further assay is MKN1. Kind of assay: Gastric cancer cell proliferation inhibitory activity (Cell Counting Kit-8), MKN1. The following applies: Homo sapiens, MKN-1; 72 hours, Cell Counting Kit-8, relative IC50. How it is done: (§1) Experiments were performed using six types of gastric cancer cell lines to measure the cell proliferation inhibitory ability of each Example compound. NCI-N87, SNU601, KATO-III, MKN1, and AGS cells were dispensed into a 96-well plate at 100 µL of cell suspension per well using RPMI1640 medium containing 10 % FBS and 1 % PS, followed by incubation in a cell incubator at 37 °C and 5 % CO2. HS746T cells were dispensed into a 96-well plate at 100 µL of cell suspension per well using DMEM medium containing 10 % FBS and 1 % PS, followed by incubation in a cell incubator at 37 °C and 5 % CO2. The next day, each Example compound dissolved and diluted in DMSO across 10 concentration ranges and a DMSO control group were treated on the cells for 72 hours. After completion of the compound treatment, 10 µL of Cell Counting Kit-8 (Dojindo) reagent was added to each well of the 96-well plate, followed by incubation for 2 hours. […] were measured after inserting the 96-well plate into an Envision plate reader […]. Relative IC50 values were calculated by fitting a dose-response curve using Graphpad PRISM software.
(§2) The gastric cancer cell proliferation inhibitory activities of the Example compounds measured by the method described above were evaluated according to the following criteria, and the results are presented in Table 20.

In another assay the test system is AGS cells. Kind of assay: Gastric cancer cell proliferation inhibitory activity (Cell Counting Kit-8), AGS. Particulars: Homo sapiens, 72 hours, Cell Counting Kit-8, relative IC50. On the procedure: as §1, §2
For a further assay, the system named is HCT15. Kind of assay: Colorectal cancer cell proliferation inhibitory activity, HCT15. Particulars: Homo sapiens, HCT-15; 72 hours, Cell Counting Kit-8, relative IC50. On the procedure: as §1, with “seven” for “six”, “colorectal” for “gastric”, “DLD-1, LoVo, SW620, SW480, HCT116, HCT15,” for “NCI-N87, SNU601, KATO-III, MKN1,”, “HT29” for “AGS”, “RPMI1640” for “RPMI1640 medium containing 10 % FBS and 1 % PS, followed by incubation in a cell incubator at 37 °C and 5 % CO2. HS746T cells were dispensed into a 96-well plate at 100 µL of cell suspension per well using DMEM”
(§3) The colorectal cancer cell proliferation inhibitory activities of the Example compounds measured by the method described above were evaluated according to the following criteria, and the results are presented in Table 19.

The test system of the next assay is SW480. Kind of assay: Colorectal cancer cell proliferation inhibitory activity, SW480. Particulars: Homo sapiens, 72 hours, Cell Counting Kit-8, relative IC50. On the procedure: as §1, with “seven” for “six”, “colorectal” for “gastric”, “DLD-1, LoVo, SW620, SW480, HCT116, HCT15,” for “NCI-N87, SNU601, KATO-III, MKN1,”, “HT29” for “AGS”, “RPMI1640” for “RPMI1640 medium containing 10 % FBS and 1 % PS, followed by incubation in a cell incubator at 37 °C and 5 % CO2. HS746T cells were dispensed into a 96-well plate at 100 µL of cell suspension per well using DMEM”
as §3

SMILES strings stand for the structures. Where only a bound is given, the exact number is not on record here.

CDK12, sequence (Q9NYV4 whole entry, species assumed): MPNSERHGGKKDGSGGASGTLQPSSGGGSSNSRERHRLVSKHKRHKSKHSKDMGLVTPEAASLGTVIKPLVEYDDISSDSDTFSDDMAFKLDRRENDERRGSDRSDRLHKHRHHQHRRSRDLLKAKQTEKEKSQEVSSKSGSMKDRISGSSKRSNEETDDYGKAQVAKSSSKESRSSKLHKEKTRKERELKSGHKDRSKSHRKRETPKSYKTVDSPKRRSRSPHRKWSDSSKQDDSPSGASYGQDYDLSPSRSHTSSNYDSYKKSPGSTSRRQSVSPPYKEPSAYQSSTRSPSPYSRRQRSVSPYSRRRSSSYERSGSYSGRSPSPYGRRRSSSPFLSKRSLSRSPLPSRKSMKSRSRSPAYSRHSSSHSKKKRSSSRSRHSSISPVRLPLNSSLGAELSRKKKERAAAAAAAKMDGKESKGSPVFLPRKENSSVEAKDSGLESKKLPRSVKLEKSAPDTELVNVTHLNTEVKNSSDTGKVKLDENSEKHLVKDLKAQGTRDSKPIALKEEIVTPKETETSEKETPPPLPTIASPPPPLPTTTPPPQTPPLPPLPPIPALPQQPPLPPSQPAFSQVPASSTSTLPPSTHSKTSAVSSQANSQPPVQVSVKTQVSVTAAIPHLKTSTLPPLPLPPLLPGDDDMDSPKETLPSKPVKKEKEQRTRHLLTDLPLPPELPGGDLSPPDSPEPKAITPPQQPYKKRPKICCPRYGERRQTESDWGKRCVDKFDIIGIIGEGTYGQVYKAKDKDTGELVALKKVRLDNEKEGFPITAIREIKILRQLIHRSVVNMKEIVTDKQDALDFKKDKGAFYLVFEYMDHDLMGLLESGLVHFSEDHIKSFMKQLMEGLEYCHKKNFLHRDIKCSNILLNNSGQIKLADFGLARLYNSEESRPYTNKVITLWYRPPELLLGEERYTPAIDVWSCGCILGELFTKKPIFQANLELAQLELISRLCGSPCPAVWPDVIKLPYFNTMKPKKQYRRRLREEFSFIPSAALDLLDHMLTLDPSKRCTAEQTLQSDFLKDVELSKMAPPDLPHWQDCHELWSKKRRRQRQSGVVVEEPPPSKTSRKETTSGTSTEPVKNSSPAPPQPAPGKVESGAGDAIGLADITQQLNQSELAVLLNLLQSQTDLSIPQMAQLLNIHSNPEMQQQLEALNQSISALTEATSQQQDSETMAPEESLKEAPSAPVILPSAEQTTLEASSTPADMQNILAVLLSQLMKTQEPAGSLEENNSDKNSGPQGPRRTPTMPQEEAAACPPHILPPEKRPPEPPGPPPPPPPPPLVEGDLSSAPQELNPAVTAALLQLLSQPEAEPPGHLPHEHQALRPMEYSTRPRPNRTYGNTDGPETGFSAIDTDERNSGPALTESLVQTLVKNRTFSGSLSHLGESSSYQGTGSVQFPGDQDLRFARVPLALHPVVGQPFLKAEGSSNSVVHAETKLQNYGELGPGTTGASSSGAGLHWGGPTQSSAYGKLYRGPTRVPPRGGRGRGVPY
CDK12, sequence (O75909 whole entry partner, species assumed): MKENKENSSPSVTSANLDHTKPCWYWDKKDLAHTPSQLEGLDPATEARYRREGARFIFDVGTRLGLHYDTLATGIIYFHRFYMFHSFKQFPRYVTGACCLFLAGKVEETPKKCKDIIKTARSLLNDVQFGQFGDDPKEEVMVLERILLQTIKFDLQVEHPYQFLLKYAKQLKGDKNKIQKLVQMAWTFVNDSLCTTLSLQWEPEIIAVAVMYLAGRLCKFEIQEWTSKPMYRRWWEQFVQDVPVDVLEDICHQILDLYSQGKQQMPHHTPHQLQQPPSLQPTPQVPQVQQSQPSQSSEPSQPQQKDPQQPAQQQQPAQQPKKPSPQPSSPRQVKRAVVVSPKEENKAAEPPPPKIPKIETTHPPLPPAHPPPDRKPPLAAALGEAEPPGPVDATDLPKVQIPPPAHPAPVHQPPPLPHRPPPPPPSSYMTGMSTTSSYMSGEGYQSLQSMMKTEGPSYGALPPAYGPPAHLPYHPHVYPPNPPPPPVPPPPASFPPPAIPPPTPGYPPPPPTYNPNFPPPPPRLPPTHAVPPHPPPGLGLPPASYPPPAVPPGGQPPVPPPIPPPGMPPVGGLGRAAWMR

As for `CN1CCN(c2cc(NCc3nc4ccc(F)c(F)c4[nH]3)c3ncc(C(F)(F)F)n3n2)CC1` [Example 8, N-((6,7-difluoro-1H-benzo[d]imidazol-2-yl)methyl)-6-(4-methylpiperazin-1-yl)-3-(trifluoromethyl)imidazo[1,2-b]pyridazin-8-amine], the IC50 on CDK12 was under 0.3 µM; in the assay on MKN1 it was at most 0.2 µM; in the assay with AGS cells, at most 0.2 µM; with HCT15, at most 0.2 µM; in the assay on SW480 it was at most 0.2 µM. Also, the “Cyclin K degradation ability” value in the assay with Cyclin K is “strongly degrade Cyclin K”.

In the case of `CN1CCN(c2cc(NCc3nc4cc(Cl)c(Cl)cc4[nH]3)c3ncc(C(F)(F)F)n3n2)CC1` [Example 29, N-((5,6-dichloro-1H-benzo[d]imidazol-2-yl)methyl)-6-(4-methylpiperazin-1-yl)-3-(trifluoromethyl)imidazo[1,2-b]pyridazin-8-amine], the IC50 on CDK12 is under 0.3 µM.

For `N#CC1CN(c2cc(NCc3nc4cc(Cl)c(Cl)cc4[nH]3)c3ncc(C(F)(F)F)n3n2)C1` [Example 30, 1-(8-(((5,6-dichloro-1H-benzol[d]imidazol-2-yl)methyl)amino)-3-(trifluoromethyl)imidazo[1,2-b]pyridazin-6-yl)azetidine-3-carbonitrile], the IC50 at CDK12 was under 0.3 µM.

`Nc1ncc(-c2cc(NCc3nc4cc(Cl)c(Cl)cc4[nH]3)c3ncc(C(F)(F)F)n3n2)cn1` [Example 40]: the half-maximal inhibitory concentration (IC50) at CDK12 was under 0.3 µM; in the assay with MKN1, at most 0.2 µM; with AGS cells, at most 0.2 µM; in the assay on HCT15, at most 0.2 µM; in the assay with SW480, at most 0.2 µM. The “Cyclin K degradation ability” value in the assay with Cyclin K is recorded as “strongly degrade Cyclin K”.

The values above are taken from patent publication EP4813991A1 (iLeadBMS Co., Ltd., priority 2023, dated 2025).
